In the assay the target is T1, Oxytocin receptor (Homo sapiens, UniProt P30559).
T1 sequence (P30559 whole entry): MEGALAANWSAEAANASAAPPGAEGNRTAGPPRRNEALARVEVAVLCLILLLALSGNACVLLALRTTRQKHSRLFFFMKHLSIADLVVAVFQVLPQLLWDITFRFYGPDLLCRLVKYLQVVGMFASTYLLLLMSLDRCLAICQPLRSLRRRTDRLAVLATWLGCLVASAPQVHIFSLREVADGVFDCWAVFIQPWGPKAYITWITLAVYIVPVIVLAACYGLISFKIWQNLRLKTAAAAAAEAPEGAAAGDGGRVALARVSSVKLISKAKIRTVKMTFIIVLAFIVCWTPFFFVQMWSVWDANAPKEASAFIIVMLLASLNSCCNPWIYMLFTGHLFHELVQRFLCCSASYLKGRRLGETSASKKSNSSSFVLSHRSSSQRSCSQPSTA
As to the kind of experiment: Agonist activity at human oxytocin receptor expressed CHO cells assessed as calcium flux by FLIPR method. Type of assay: functional, cell-based. Background: Calcium flux is commonly read through the fluorescence of an indicator in the cells.

For orientation: EC50 means the concentration at which the effect is half-maximal.

Take `O=S(=O)(Nc1ccnn1-c1ccccn1)c1ccc(Cl)cc1F`: the half-maximal effective concentration (EC50) came to 19 nM.

As to `O=S(=O)(Nc1ccnn1-c1ncc(C(F)(F)F)cn1)c1ccc(C(F)(F)F)cc1`, the EC50 is 1570 nM.

The record behind these values is ChEMBL document CHEMBL3352674, “Pyrazolsulfonamide agonists of oxytocin receptor” (ACS Med Chem Lett, 2014).
